Data taken from patent US20120122860A1, “SOLID FORMS OF SULFONAMIDES AND AMINO ACIDS” (Plexxikon, Inc., priority 2009, published 2012).

Tests used:
Flt1 = Flt1 (Homo sapiens, UniProt P17948); assay: Kinase activity assay, Flt1
Fms = Fms (Homo sapiens, UniProt P07333); assay: Kinase activity assay, Fms
C-Raf = C-Raf (Homo sapiens, UniProt P04049); assay: Kinase activity assay, C-Raf
Kdr = Kdr (Homo sapiens, UniProt P35968); assay: Kinase activity assay, Kdr
B-Raf = B-Raf (Homo sapiens, UniProt P15056); assay: Kinase activity assay, B-Raf; type: biochemical; details: read-out: activity toward kinase B-Raf, IC50
B-Raf, sequence (P15056 whole entry): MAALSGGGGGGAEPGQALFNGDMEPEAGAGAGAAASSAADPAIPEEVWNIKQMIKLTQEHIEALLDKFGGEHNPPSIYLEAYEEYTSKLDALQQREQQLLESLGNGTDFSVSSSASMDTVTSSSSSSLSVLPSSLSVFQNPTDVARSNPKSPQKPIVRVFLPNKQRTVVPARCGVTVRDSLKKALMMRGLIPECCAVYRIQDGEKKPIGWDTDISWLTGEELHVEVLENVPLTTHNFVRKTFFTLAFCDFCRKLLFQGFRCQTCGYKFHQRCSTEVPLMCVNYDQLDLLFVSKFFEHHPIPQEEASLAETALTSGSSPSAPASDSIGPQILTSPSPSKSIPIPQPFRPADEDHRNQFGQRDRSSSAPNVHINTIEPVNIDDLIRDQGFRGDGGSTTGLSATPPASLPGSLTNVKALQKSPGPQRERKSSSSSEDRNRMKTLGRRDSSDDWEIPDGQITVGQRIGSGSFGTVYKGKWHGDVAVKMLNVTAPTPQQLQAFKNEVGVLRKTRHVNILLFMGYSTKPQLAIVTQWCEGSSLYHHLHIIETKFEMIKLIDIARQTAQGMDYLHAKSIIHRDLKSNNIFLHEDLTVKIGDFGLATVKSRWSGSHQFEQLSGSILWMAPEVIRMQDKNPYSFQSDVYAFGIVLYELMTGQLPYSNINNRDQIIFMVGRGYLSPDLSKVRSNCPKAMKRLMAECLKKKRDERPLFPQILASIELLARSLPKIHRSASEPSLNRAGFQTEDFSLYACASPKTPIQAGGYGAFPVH

Kit = Kit (Homo sapiens, UniProt P10721); assay: Kinase activity assay, Kit
Kit, sequence (P10721 26-976): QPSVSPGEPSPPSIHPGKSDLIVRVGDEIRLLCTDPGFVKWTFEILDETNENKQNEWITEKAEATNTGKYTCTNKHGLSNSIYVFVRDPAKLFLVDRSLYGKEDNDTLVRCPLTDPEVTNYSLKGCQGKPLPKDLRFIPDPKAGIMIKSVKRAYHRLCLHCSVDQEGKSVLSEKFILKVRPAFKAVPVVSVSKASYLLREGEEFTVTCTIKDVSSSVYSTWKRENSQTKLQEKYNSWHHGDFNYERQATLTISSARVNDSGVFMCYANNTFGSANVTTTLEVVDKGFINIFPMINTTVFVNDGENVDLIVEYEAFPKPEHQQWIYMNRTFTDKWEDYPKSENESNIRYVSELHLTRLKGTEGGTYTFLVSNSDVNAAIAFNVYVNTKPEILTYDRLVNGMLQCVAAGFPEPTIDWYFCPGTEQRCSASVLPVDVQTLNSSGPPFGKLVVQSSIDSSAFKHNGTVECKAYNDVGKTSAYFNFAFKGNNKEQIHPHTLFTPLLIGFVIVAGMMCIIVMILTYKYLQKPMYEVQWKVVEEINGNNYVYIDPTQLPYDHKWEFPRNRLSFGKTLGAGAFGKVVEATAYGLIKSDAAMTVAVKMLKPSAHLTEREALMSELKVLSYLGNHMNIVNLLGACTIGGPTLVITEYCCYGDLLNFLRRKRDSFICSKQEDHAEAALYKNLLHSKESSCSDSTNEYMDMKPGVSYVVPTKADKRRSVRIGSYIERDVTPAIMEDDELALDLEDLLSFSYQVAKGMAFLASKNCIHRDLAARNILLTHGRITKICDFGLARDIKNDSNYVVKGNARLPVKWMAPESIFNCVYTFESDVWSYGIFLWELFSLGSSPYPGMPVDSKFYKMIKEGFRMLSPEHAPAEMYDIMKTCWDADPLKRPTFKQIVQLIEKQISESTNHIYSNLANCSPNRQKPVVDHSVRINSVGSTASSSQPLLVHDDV

B-Raf V600E = B-Raf V600E (Homo sapiens, UniProt P15056, V600E); assay: Kinase activity assay, B-Raf V600E; type: biochemical; details: read-out: activity toward kinase B-Raf V600E, IC50
B-Raf V600E, sequence (P15056 whole entry V600E): as the sequence (P15056 whole entry) above, with V600E counted along it

Src = Src (Homo sapiens, UniProt P12931); assay: Kinase activity assay, Src
[1] = Dog PK study of solid forms and formulations; type: in vivo, Beagle dogs
Experimental: Pharmacokinetic properties of various compositions prepared from the complexes may be assessed in male Sprague Dawley rats or male Beagle dogs, and compared to the properties of the free base compound. Rats are dosed daily with compound either by IV injections via surgically implanted jugular catheters or by oral gavage (PO). Each compound is prepared as a 20 mg/mL stock solution in dimethyl sulfoxide, which is further diluted to provide the dosing stock at the desired concentration for the IV or PO formulations. For IV dosing, the dosing stock is diluted into a 1:1:8 mixture of Solutol®:ethanol:water. For PO dosing, the dosing stock is diluted into 1% methylcellulose. In a cassette format, 5 compounds are diluted to 0.5 mg/mL each for IV dosing and 0.4 mg/mL each for PO dosing and dosed at 1 mg/kg (2 mL/kg) or 2 mg/kg (5 mL/kg), respectively. For IV dosed animals, tail vein blood samples are collected with lithium heparin anticoagulant at 5, 15, 30, and 60 minutes and 4, 8, and 24 hours post dosing each day. For PO dosed animals, tail vein blood samples are collected with lithium heparin anticoagulant at 30 minutes, 1, 2, 4, 8 and 24 hours post dosing each day. Dogs are dosed daily by oral capsules in a suitable formulation at 50 mg/mL. Cephalic vein blood samples are collected with lithium heparin anticoagulant at 30 minutes, 1, 2, 4, 8 and 24 hours post dosing each day. All samples are processed to plasma and frozen for later analysis of each compound by LC/MS/MS. Plasma levels as a function of time are plotted to assess the AUC (ng*hr/mL).
The arginine complex of N-[3-(5-chloro-1H-pyrrolo[2,3-b]pyridine-3-carbonyl)-2,4-difluoro-phenyl]-4-trifluoromethyl-benzenesulfonamide P-1021 was analyzed in a number of dog PK studies following the above or similar protocols. These were done primarily at Bridge Laboratories, Beijing, China, with one study done at Seventh Wave Laboratories LLC, Chesterfield, Mo. Plasma samples were analyzed to determine the plasma concentration (PPD Development, Madison, Wis.) at each time point from which the Cmax and AUC∞ were determined. In some instances, the materials are combined in the solvents indicated, and the solvent is removed by evaporation, or by spray drying where indicated. In these tables, unless indicated otherwise, the dose is mg/dog, and the Cmax/dose ((ng/mL)/(mg/kg)) and the AUC∞/dose ((ng*hr/mL)/(mg/kg)) are calculated assuming a 10 kg weight for the dogs.
This study was done at Seventh Wave, containers were provided with 13.259 g, 39.776 g or 66.301 g of this formulation and suspended in 360 mL of 1.5% Polysorbate 20 vehicle and dosed by oral gavage.
N-[3-(5-chloro-1H-pyrrolo[2,3-b]pyridine-3-carbonyl)-2,4-difluoro-phenyl]-4-trifluoromethyl-benzenesulfonamide P-1021 was analyzed in a dog PK study wherein the arginine complex of N-[3-(5-cyano-1H-pyrrolo[2,3-b]pyridine-3-carbonyl)-2,4-difluoro-phenyl]-4-trifluoromethyl-benzenesulfonamide P-1092 was also assessed.

[2] = test articles are solid forms of P-1021, dog, oral, 100 mg/dog, calculated assuming a 10 kg weight
[3] = Table 9B, dog, dose 200 mg/dog, 10 kg weight assumed
[4] = Table 9B, dog, dose 400 mg/dog, 10 kg weight assumed
[5] = Table 5B, forms of P-1021, dog, dose 150 mg/dog, 10 kg weight assumed
[6] = Table 7B, P-1021 arginine complex, dog, dose 200 mg/dog, 10 kg weight assumed
[7] = Table 7B, P-1021 arginine complex, dog, dose 400 mg/dog, 10 kg weight assumed
[8] = Table 8B, P-1021 arginine complex, dog, oral gavage, dose 249 mg/kg
[9] = Table 8B, P-1021 arginine complex, dog, oral gavage, dose 795 mg/kg
[10] = Table 8B, P-1021 arginine complex, dog, oral gavage, dose 965 mg/kg

Fms, sequence (P07333 20-972): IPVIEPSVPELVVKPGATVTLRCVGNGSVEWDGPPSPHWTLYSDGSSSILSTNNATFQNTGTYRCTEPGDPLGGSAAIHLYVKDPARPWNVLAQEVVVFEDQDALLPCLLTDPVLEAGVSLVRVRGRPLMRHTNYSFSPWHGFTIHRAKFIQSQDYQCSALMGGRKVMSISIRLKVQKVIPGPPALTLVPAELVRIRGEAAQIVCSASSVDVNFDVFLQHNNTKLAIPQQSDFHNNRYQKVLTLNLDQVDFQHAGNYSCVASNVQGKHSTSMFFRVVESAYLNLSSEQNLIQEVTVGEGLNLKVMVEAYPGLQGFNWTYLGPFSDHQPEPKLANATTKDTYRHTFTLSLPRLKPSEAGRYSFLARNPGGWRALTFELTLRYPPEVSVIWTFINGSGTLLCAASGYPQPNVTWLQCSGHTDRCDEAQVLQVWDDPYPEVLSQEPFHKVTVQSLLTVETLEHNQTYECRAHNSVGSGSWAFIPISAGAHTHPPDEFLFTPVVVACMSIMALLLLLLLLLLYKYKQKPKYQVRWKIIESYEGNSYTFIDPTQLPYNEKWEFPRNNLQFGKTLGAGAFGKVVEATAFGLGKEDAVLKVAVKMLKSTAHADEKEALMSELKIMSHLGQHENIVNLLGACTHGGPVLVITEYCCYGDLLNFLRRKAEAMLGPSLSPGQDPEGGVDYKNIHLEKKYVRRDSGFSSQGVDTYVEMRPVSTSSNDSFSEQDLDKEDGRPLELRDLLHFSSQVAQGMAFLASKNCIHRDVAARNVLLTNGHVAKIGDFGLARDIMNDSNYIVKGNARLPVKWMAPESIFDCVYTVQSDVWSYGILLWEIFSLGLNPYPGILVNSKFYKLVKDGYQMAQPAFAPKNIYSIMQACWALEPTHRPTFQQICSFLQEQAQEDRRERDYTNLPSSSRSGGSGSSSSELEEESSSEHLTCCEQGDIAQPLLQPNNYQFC
Kdr, sequence (P35968 20-1356): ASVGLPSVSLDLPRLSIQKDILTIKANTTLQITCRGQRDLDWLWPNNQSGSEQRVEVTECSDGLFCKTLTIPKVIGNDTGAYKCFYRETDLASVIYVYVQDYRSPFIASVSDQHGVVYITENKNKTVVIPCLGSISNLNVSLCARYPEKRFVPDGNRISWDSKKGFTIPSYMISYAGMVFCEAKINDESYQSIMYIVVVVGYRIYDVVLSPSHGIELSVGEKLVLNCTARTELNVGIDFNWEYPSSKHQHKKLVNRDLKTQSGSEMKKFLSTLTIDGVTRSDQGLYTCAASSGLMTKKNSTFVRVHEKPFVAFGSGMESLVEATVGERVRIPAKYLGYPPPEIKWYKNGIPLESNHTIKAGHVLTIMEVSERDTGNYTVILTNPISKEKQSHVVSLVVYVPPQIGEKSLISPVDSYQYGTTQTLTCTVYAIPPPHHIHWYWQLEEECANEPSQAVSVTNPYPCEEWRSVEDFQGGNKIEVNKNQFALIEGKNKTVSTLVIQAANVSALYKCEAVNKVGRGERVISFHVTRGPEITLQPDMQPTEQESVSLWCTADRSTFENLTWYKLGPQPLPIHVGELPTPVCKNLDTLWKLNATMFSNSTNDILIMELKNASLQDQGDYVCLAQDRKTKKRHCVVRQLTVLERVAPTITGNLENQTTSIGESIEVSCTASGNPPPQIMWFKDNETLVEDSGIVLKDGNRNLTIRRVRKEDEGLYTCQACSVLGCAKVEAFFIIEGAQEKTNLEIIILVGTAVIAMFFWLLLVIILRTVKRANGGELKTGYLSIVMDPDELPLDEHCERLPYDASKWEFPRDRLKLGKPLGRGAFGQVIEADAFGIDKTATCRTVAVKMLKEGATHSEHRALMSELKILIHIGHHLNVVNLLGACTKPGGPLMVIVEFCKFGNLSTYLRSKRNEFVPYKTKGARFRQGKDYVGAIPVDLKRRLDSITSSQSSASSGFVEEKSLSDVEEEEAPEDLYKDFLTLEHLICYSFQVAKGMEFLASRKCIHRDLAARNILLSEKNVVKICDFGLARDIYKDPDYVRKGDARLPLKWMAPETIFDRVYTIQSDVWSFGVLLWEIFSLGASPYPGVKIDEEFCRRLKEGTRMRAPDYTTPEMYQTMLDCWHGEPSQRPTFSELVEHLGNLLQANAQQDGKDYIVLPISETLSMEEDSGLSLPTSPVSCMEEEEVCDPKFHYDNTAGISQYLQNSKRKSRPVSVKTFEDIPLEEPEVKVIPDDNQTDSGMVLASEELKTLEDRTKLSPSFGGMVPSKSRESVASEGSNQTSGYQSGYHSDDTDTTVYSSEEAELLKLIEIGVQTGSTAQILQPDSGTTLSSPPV
C-Raf, sequence (P04049 whole entry): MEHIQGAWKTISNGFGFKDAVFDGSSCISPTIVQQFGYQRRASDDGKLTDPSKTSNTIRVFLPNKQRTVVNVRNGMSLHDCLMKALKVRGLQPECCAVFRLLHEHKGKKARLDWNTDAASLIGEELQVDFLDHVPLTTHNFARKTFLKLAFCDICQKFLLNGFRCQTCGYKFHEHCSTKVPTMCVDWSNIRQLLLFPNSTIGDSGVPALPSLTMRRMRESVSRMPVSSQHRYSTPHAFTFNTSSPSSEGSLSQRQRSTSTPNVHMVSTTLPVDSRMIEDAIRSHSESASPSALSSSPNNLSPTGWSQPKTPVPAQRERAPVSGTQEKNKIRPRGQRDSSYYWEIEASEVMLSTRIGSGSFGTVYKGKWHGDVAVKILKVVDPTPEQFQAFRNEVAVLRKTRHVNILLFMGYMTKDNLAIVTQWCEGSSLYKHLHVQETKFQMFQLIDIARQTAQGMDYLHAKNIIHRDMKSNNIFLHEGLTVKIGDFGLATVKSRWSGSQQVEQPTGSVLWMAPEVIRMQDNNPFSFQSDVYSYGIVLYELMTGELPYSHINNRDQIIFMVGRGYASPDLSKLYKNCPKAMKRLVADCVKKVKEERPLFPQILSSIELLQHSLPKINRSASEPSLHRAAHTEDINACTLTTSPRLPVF

## CCCS(=O)(=O)Nc1ccc(F)c(C(=O)c2c[nH]c3ncc(-c4ccc(S(=O)(=O)CC)cc4)cc23)c1F [P-2218, Propane-1-sulfonic acid {3-[5-(4-ethanesulfonyl-phenyl)-1H-pyrrolo[2,3-b]pyridine-3-carbonyl]-2,4-difluoro-phenyl}-amide]
Flt1
  IC50: ≤ 10 µM
Fms
  IC50: ≤ 10 µM
C-Raf
  IC50: ≤ 10 µM
Kdr
  IC50: ≤ 10 µM
B-Raf
  IC50: ≤ 10 µM
Kit
  IC50: ≤ 10 µM
B-Raf V600E
  IC50: ≤ 10 µM

## CCCS(=O)(=O)Nc1ccc(F)c(C(O)c2c[nH]c3ncc(-c4ccc(C(=O)NCC)nc4)cc23)c1F (centres unmarked) [P-2150, 5-(3-{[2,6-Difluoro-3-(propane-1-sulfonylamino)-phenyl]-hydroxy-methyl}-1H-pyrrolo[2,3-b]pyridin-5-yl)-pyridine-2-carboxylic acid ethylamide]
Flt1
  IC50: ≤ 10 µM
C-Raf
  IC50: ≤ 10 µM
Kdr
  IC50: ≤ 10 µM
B-Raf
  IC50: ≤ 10 µM
Src
  IC50: ≤ 10 µM
B-Raf V600E
  IC50: ≤ 10 µM

## CCCS(=O)(=O)Nc1ccc(F)c(C(=O)c2c[nH]c3ncc(C(=O)NC)cc23)c1F [P-2200, 3-[2,6-Difluoro-3-(propane-1-sulfonylamino)-benzoyl]-1H-pyrrolo[2,3-b]pyridine-5-carboxylic acid methylamide]
Flt1
  IC50: ≤ 10 µM
Fms
  IC50: ≤ 10 µM
C-Raf
  IC50: ≤ 10 µM
Kdr
  IC50: ≤ 10 µM
B-Raf
  IC50: ≤ 10 µM
Kit
  IC50: ≤ 10 µM
B-Raf V600E
  IC50: ≤ 10 µM

## O=C(c1c(F)ccc(NS(=O)(=O)c2ccc(C(F)(F)F)cc2)c1F)c1c[nH]c2ncc(Cl)cc12 [Sulfate, N-[3-(5-chloro-1H-pyrrolo[2,3-b]pyridine-3-carbonyl)-2,4-difluoro-phenyl]-4-trifluoromethyl-benzenesulfonamide]
[1]; [2]
  AUC∞/dose: 5,067 (ng*hr/mL)/(mg/kg)
  Cmax/dose: 181.5 (ng/mL)/(mg/kg)

## N#Cc1cnc2[nH]cc(C(=O)c3c(F)ccc(NS(=O)(=O)c4ccc(C(F)(F)F)cc4)c3F)c2c1 [P-1092 arginine complex, N-[3-(5-cyano-1H-pyrrolo[2,3-b]pyridine-3-carbonyl)-2,4-difluoro-phenyl]-4-trifluoromethyl-benzenesulfonamide]
[1]; [3]
  AUC∞/dose: 11,720 (ng*hr/mL)/(mg/kg)
  Cmax/dose: 550 (ng/mL)/(mg/kg)
[1]; [4]
  AUC∞/dose: 12,580 (ng*hr/mL)/(mg/kg)
  Cmax/dose: 617.5 (ng/mL)/(mg/kg)

## O=C(c1c(F)ccc(NS(=O)(=O)c2ccc(C(F)(F)F)cc2)c1F)c1c[nH]c2ncc(Cl)cc12 [Free base, N-[3-(5-chloro-1H-pyrrolo[2,3-b]pyridine-3-carbonyl)-2,4-difluoro-phenyl]-4-trifluoromethyl-benzenesulfonamide]
[1]; [5]
  AUC∞/dose: 5,270 (ng*hr/mL)/(mg/kg)
  Cmax/dose: 482 (ng/mL)/(mg/kg)
[1]; [2]
  AUC∞/dose: 8,031 (ng*hr/mL)/(mg/kg)
  Cmax/dose: 581.3 (ng/mL)/(mg/kg)

## CCCS(=O)(=O)Nc1ccc(F)c(C(=O)c2c[nH]c3ncc(-c4cnc(OCCCN(C)C)nc4)cc23)c1F [P-2203, Propane-1-sulfonic acid (3-{5-[2-(3-dimethylamino-propoxy)-pyrimidin-5-yl]-1H-pyrrolo[2,3-b]pyridine-3-carbonyl}-2,4-difluoro-phenyl)-amide]
Flt1
  IC50: ≤ 10 µM
Fms
  IC50: ≤ 10 µM
Kdr
  IC50: ≤ 10 µM
B-Raf
  IC50: ≤ 10 µM
Kit
  IC50: ≤ 10 µM
B-Raf V600E
  IC50: ≤ 10 µM

## O=C(c1c(F)ccc(NS(=O)(=O)c2ccc(C(F)(F)F)cc2)c1F)c1c[nH]c2ncc(Cl)cc12 [Amorphous free base, N-[3-(5-chloro-1H-pyrrolo[2,3-b]pyridine-3-carbonyl)-2,4-difluoro-phenyl]-4-trifluoromethyl-benzenesulfonamide]
[1]; [5]
  AUC∞/dose: 482 (ng*hr/mL)/(mg/kg)
  Cmax/dose: 33 (ng/mL)/(mg/kg)

## CCCS(=O)(=O)Nc1cccc(C(=O)c2c[nH]c3ncc(C(=O)OC)cc23)c1F [P-2404, 3-[2-Fluoro-3-(propane-1-sulfonylamino)-benzoyl]-1H-pyrrolo[2,3-b]pyridine-5-carboxylic acid methyl ester]
Flt1
  IC50: ≤ 10 µM
Fms
  IC50: ≤ 10 µM
C-Raf
  IC50: ≤ 10 µM
Kdr
  IC50: ≤ 10 µM
B-Raf
  IC50: ≤ 10 µM
B-Raf V600E
  IC50: ≤ 10 µM

## O=C(c1c(F)ccc(NS(=O)(=O)c2ccc(C(F)(F)F)cc2)c1F)c1c[nH]c2ncc(Cl)cc12 [P-1021 arginine complex, N-[3-(5-chloro-1H-pyrrolo[2,3-b]pyridine-3-carbonyl)-2,4-difluoro-phenyl]-4-trifluoromethyl-benzenesulfonamide]
[1]; P-1021 arginine complex dosed at 400 mg per dog (Table 6B, Table 7B), typical value
  AUC/dose: greater than 12,000 (ng*hr/mL)/(mg/kg)
[1]; [5]
  AUC∞/dose: 34,693 (ng*hr/mL)/(mg/kg)
  Cmax/dose: 810 (ng/mL)/(mg/kg)
[1]; [6]
  AUC∞/dose: 22,480 (ng*hr/mL)/(mg/kg)
  Cmax/dose: 960 (ng/mL)/(mg/kg)
[1]; [7]
  AUC∞/dose: 12,120 (ng*hr/mL)/(mg/kg)
  Cmax/dose: 455 (ng/mL)/(mg/kg)
[1]; [8]
  AUC∞/dose: 11,247 (ng*hr/mL)/(mg/kg)
  Cmax/dose: 208 (ng/mL)/(mg/kg)
[1]; [9]
  AUC∞/dose: 7,457 (ng*hr/mL)/(mg/kg)
  Cmax/dose: 107 (ng/mL)/(mg/kg)
[1]; [10]
  AUC∞/dose: 3,883 (ng*hr/mL)/(mg/kg)
  Cmax/dose: 178 (ng/mL)/(mg/kg)
[1]; [2]
  AUC∞/dose: 16,850 (ng*hr/mL)/(mg/kg)
  Cmax/dose: 830.5 (ng/mL)/(mg/kg)

## O=C(c1c(F)ccc(NS(=O)(=O)c2ccc(C(F)(F)F)cc2)c1F)c1c[nH]c2ncc(Cl)cc12 [P-1021, N-[3-(5-chloro-1H-pyrrolo[2,3-b]pyridine-3-carbonyl)-2,4-difluoro-phenyl]-4-trifluoromethyl-benzenesulfonamide]
[1]; dog PK studies, arginine complex
  Cmax and AUC / exposure, comparison in words: favorable Cmax and AUC compared to free base and other formulations

## CCCS(=O)(=O)Nc1ccc(F)c(C(=O)c2c[nH]c3ncc(C(=O)NCCO)cc23)c1F [P-2217, 3-[2,6-Difluoro-3-(propane-1-sulfonylamino)-benzoyl]-1H-pyrrolo[2,3-b]pyridine-5-carboxylic acid (2-hydroxy-ethyl)-amide]
Flt1
  IC50: ≤ 10 µM
C-Raf
  IC50: ≤ 10 µM
Kdr
  IC50: ≤ 10 µM
B-Raf
  IC50: ≤ 10 µM
Src
  IC50: ≤ 10 µM
B-Raf V600E
  IC50: ≤ 10 µM

## O=C(c1c(F)ccc(NS(=O)(=O)c2ccc(C(F)(F)F)cc2)c1F)c1c[nH]c2ncc(Cl)cc12 [Mesylate, N-[3-(5-chloro-1H-pyrrolo[2,3-b]pyridine-3-carbonyl)-2,4-difluoro-phenyl]-4-trifluoromethyl-benzenesulfonamide]
[1]; [5]
  AUC∞/dose: 2,849 (ng*hr/mL)/(mg/kg)
  Cmax/dose: 116 (ng/mL)/(mg/kg)

## CCCS(=O)(=O)Nc1ccc(F)c(C(=O)c2c[nH]c3ncc(-c4cncnc4)cc23)c1F [P-2162, Propane-1-sulfonic acid [2,4-difluoro-3-(5-pyrimidin-5-yl-1H-pyrrolo[2,3-b]pyridine-3-carbonyl)-phenyl]-amide]
Flt1
  IC50: ≤ 10 µM
C-Raf
  IC50: ≤ 10 µM
Kdr
  IC50: ≤ 10 µM
B-Raf
  IC50: ≤ 10 µM
Src
  IC50: ≤ 10 µM
B-Raf V600E
  IC50: ≤ 10 µM
